From patent US20260207621A1 (Vividion Therapeutics, Inc., priority 2022, published 2026)
pIC50: −log10 of the molar value.

What was measured:
[1] = test system: Nrf2; experiment: Nrf2 antagonism assay: ARE luciferase reporter in KYSE-70 cells; type: cell-based; conditions: positive Imax corresponds to Nrf2 antagonism; for Emax: Homo sapiens, KYSE-70, KYSE-70 cells, read-out: KYSE70 Cellular ARE Luciferase Imax (%)
In short: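 KYSE-70 esophageal squamous carcinoma cells carrying Nrf2 W24C (constitutively Nrf2-high) with an ARE-driven luciferase reporter. Loss of luciferase signal reflects Nrf2 antagonism via KEAP1 C151 engagement. IC50 and Imax come from dose-response curves; positive Imax means antagonism.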

[2] = molecular target: T1, KEAP1 C151 (Homo sapiens, UniProt Q14145); experiment: Nrf2 TMT measurement: in vitro TE50 for KEAP1 C151 (IA-DTB competition, targeted TMT mass spectrometry) in MDA-MB-468 cell lysate; type: binding; conditions: in vitro target engagement of KEAP1 C151, targeted TMT, read-out: KEAP1_C151 TE50
T1 construct: treating 500 μg of cell lysate generated from MDA-MB-468 breast cancer cells with DMSO or compound; endogenous in cells; host or cells: MDA-MB-468 breast cancer cell lysate
In short: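 MDA-MB-468 lysate (500 μg) treated with compound for 1 h at room temperature, then 200 μM IA-DTB for 1 h. Labeled peptides streptavidin-enriched after trypsin digest, TMT-labeled and quantified by targeted MS3 on the KEAP1 C151 peptide. IC50 from dose-response curve fitting.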

T1 sequence (Q14145 whole entry): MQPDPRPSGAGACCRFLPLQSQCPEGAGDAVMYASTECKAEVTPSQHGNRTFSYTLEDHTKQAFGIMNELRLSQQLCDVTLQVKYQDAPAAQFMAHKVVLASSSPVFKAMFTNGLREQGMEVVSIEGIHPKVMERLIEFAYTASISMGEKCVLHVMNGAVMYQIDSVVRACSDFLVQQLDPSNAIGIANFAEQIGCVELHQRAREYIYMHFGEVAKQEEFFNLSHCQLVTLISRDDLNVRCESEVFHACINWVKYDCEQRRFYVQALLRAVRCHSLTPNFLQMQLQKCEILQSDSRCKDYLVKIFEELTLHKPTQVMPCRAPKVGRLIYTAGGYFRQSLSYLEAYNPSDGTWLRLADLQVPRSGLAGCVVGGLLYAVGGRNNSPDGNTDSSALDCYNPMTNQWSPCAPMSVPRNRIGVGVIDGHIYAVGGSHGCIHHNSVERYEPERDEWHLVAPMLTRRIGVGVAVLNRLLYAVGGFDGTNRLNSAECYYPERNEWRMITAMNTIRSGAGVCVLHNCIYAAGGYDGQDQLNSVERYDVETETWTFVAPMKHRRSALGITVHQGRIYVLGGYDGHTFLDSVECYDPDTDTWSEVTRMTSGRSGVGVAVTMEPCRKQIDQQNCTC

Structure (SMILES)	KYSE70 Cellular ARE Luciferase Imax (%) ([1]; KYSE-70 cells)	pIC50 [2]	Emax [1]
C=CC(=O)N1CCS(=O)(=O)CC1c1cc(Cl)cc(-c2ncnc(N)n2)c1 (single isomer, unassigned) [Compound 206, 1-(3-(3-(4-amino-1,3,5-triazin-2-yl)-5-chlorophenyl)-1,1-dioxidothiomorpholino)prop-2-en-1-one]	55%	6.28	–
C=CC(=O)N1CC(C)(C)OC[C@H]1c1cc(Cl)cc(-c2nccc(N)n2)c1 (single isomer, unassigned) [Compound 155]	–	7.17	94%
C=CC(=O)N1CCOCC1c1cc(Cl)cc(-c2ccccc2)c1 (racemic) [Compound 1, 1-(3-(5-chloro-[1,1′-biphenyl]-3-yl)morpholino)prop-2-en-1-one]	–	6.39	56%
C=CC(=O)N1[C@H](C)COC[C@H]1c1cc(Cl)cc(-c2ncnc(N)n2)c1 (single isomer, unassigned) [Compound 102]	–	7.36	92%
C=CC(=O)N1CC2(CCCC2)OCC1(C)c1cc(Cl)cc(-c2nccc(N)n2)c1 (single isomer, unassigned) [Compound 171, 1-(8-(3-(4-aminopyrimidin-2-yl)-5-chlorophenyl)-8-methyl-6-oxa-9-azaspiro[4.5]decan-9-yl)prop-2-en-1-one]	–	6.46	72%
C=CC(=O)N1[C@H](C(=O)N(C)C)COC[C@H]1c1cc(Cl)nc(-c2cc(N)ncn2)c1 (single isomer, unassigned) [Compound 169]	–	7.15	82%
C=CC(=O)N1CCOCC1c1cc(Cl)cc(-c2ccn3ccnc3n2)c1 (single isomer, unassigned) [Compound 63, 1-(3-(3-chloro-5-(imidazo[1,2-a]pyrimidin-7-yl)phenyl)morpholino)prop-2-en-1-one]	–	8.48	63%
C=CC(=O)N1CCOC[C@H]1c1cc(Cl)cc(C2CNC(=S)NC2)c1 (single isomer, unassigned) [Compound 233]	–	6.18	83%
C=CC(=O)N1CC(C)(C)OC[C@H]1c1cc(Cl)cc(-c2ncc(N)c(N)n2)c1 (single isomer, unassigned) [Compound 287]	–	6.96	96%
C=CC(=O)N1CC2(CCCC2)OCC1(C)c1cc(Cl)cc(-c2cc(N)ncn2)c1 (single isomer, unassigned) [Compound 170, 1-(8-(3-(6-aminopyrimidin-4-y1)-5-chlorophenyl)-8-methyl-6-oxa-9-azaspiro[4.5]decan-9-yl)prop-2-en-1-one]	–	5.78	81%
C=CC(=O)N1CCOC[C@H]1c1cc(Cl)cc(-c2ncc(C(N)=O)o2)c1 (single isomer, unassigned) [Compound 220]	–	7.31	73%
C=CC(=O)N1CCOC[C@H]1c1cc(Cl)cc(N2CCN=C(N)C2)c1 (single isomer, unassigned) [Compound 244]	–	6.82	81%
C=CC(=O)N1CCOC[C@H]1c1cc(Cl)cc(-c2cnc(N)cn2)c1 (single isomer, unassigned) [Compound 251]	–	7.77	93%
C=CC(=O)N1CCOCC1c1cc(Cl)cc(-c2ccc3nccnc3c2)c1 (single isomer, unassigned) [Compound 34, 1-(3-(3-chloro-5-(quinoxalin-6-yl)phenyl)morpholino)prop-2-en-1-one]	–	7.74	83%
C=CC(=O)N1CCOC[C@H]1c1cc(Cl)cc(-c2cc(C)ccn2)c1 (single isomer, unassigned) [Compound 104]	–	7.35	91%
C=CC(=O)N1CCOC[C@H]1c1cc(Cl)cc(-c2ccnc(C)c2)c1 (single isomer, unassigned) [Compound 90]	–	6.92	81%
C=CC(=O)N1CCOCC1c1cc(Cl)cc(-c2cc[nH]c(=O)c2)c1 (single isomer, unassigned) [Compound 11, 4-(3-(4-acryloylmorpholin-3-yl)-5-chlorophenyl)pyridin-2(1H)-one]	–	7.17	79%
C=CC(=O)N1CC2(CC2)OCC1(C)c1cc(Cl)cc(-c2cc(N)ncn2)c1 (single isomer, unassigned) [Compound 167, 1-(6-(3-(6-aminopyrimidin-4-yl)-5-chlorophenyl)-6-methyl-4-oxa-7-azaspiro[2.5]octan-7-yl)prop-2-en-1-one]	–	5.54	87%
C=CC(=O)N1C[C@H](C)OC[C@H]1c1cc(Cl)cc(-c2ccc(F)c(C(N)=O)c2)c1 (single isomer, unassigned) [Compound 182]	–	7.80	89%
C=CC(=O)N1CCOC[C@H]1c1cc(Cl)cc(-c2ccnc(OC)c2)c1 (single isomer, unassigned) [Compound 91]	–	7.96	82%

Structure (SMILES)	KYSE70 Cellular ARE Luciferase Imax (%) ([1]; KYSE-70 cells)	pIC50 [2]	Emax [1]
C=CC(=O)N1CC[C@](C)(O)C[C@@H]1c1cc(Cl)cc(-c2ncc(N)cn2)c1 (single isomer, unassigned) [Compound 266]	–	6.49	90%
C=CC(=O)N1CCOCC1c1cc(Cl)cc(-c2ccnc(OC)n2)c1 (single isomer, unassigned) [Compound 49, 1-(3-(3-chloro-5-(2-methoxypyrimidin-4-yl)phenyl)morpholino)prop-2-en-1-one]	–	7.38	91%
C=CC(=O)N1CCOC[C@H]1c1cc(Cl)cc(-c2ncc(OC)c(N)n2)c1 [Compound 261, (R)-1-(3-(3-(4-amino-5-methoxypyrimidin-2-yl)-5-chlorophenyl)morpholino)prop-2-en-1-one]	–	7.72	95%
C=CC(=O)N1CC(C)(C)S(=O)(=O)CC1c1cc(Cl)cc(-c2nccc(N)n2)c1 (single isomer, unassigned) [Compound 246, 1-(5-(3-(4-aminopyrimidin-2-yl)-5-chlorophenyl)-2,2-dimethyl-1,1-dioxidothiomorpholino)prop-2-en-1-one]	–	7.37	90%
C=CC(=O)N1CCOCC1c1cc(C#N)cc(-c2ncccn2)c1 (single isomer, unassigned) [Compound 8, 3-(4-acryloylmorpholin-3-yl)-5-(pyrimidin-2-yl)benzonitrile]	–	7.26	53%
C=CC(=O)N1CCOC[C@H]1c1cc(Cl)cc(C2CCNC(=O)N2)c1 (single isomer, unassigned) [Compound 242]	–	6.60	59%
C=CC(=O)N1CCOCC1c1cc(Cl)cc(-c2nccc(C(N)=O)n2)c1 (single isomer, unassigned) [Compound 77, 2-(3-(4-acryloylmorpholin-3-yl)-5-chlorophenyl)pyrimidine-4-carboxamide]	–	7.07	82%
C=CC(=O)N1CCOC[C@H]1c1cc(Cl)cc(C2CNC(=O)N(C)C2)c1 (single isomer, unassigned) [Compound 216]	–	6.85	86%
C=CC(=O)N1CCOC[C@H]1c1cc(Cl)cc(C2CNC(=S)N(C)C2)c1 (single isomer, unassigned) [Compound 226]	–	6.70	85%
C=CC(=O)N1[C@H](C)COC[C@H]1c1cc(Cl)cc(-c2ccnc(C(N)=O)c2)c1 (single isomer, unassigned) [Compound 134]	–	7.20	85%
C=CC(=O)N1CCOC[C@H]1c1cc(Cl)cc(-c2nnn(C)n2)c1 (single isomer, unassigned) [Compound 9]	–	7.22	76%
C=CC(=O)N1CC(C)(C)OC[C@H]1c1cc(Cl)cc(-c2ccnc(C)n2)c1 (single isomer, unassigned) [Compound 48]	–	7.18	85%
C=CC(=O)N1[C@H](C)COC[C@H]1c1cc(Cl)cc(-c2cc(N)ncn2)c1 (single isomer, unassigned) [Compound 131]	–	6.52	91%
C=CC(=O)N1CCOC[C@H]1c1cc(Cl)cc(-c2nc(N)cnc2F)c1 (single isomer, unassigned) [Compound 280]	–	7.49	90%
C=CC(=O)N1CC2(CC2)OCC1c1cc(Cl)cc(-c2ccnc(C)n2)c1 (single isomer, unassigned) [Compound 83, 1-(6-(3-chloro-5-(2-methylpyrimidin-4-yl)phenyl)-4-oxa-7-azaspiro[2.5]octan-7-yl)prop-2-en-1-one]	–	7.05	86%
C=CC(=O)N1CCOC[C@H]1c1cc(Cl)cc(-c2nccc(NC(C)=O)n2)c1 (single isomer, unassigned) [Compound 256]	–	7.07	63%
C=CC(=O)N1CCOC[C@H]1c1cc(Cl)cc(-c2cc(N)nc(Cl)n2)c1 (single isomer, unassigned) [Compound 271]	–	7.23	93%
C=CC(=O)N1CCOC[C@H]1c1cc(Cl)cc(-c2cnc(N)o2)c1 (single isomer, unassigned) [Compound 234]	–	6.66	89%
C=CC(=O)N1[C@H](C)COC[C@H]1c1cc(Cl)cc(-c2ncc(N)cn2)c1 (single isomer, unassigned) [Compound 130]	–	7.03	89%
C=CC(=O)N1CCOC[C@H]1c1cc(Cl)cc(-c2cnc(N)c(N)n2)c1 (single isomer, unassigned) [Compound 258]	–	7.80	93%
